Data set [1] can be described thus: Pharmacokinetic test in male SD rats. The class given is in vivo. The following applies: rat, plasma; for clearance: intravenous injection, 2 mg/kg; for AUC / Cmax: po, gavage, 10 mg/kg. The protocol:
Method: 42 male SD rats, weight: 150-300 g. Divided into 7 groups randomly, with 6 rats in each group. Among the 6 rats in each group, three of them were administrated a single intravenous injection of […] of the example compound, the other three were given intragastric administration of […] of the example compound, blood was collected from the orbital venous plexus at designated time points, plasma was separated, and stored in a −80° C. refrigerator for later use.
The protein of the resultant plasma was precipitated by acetonitrile, the supernatant was extracted, and mixed with water at the ratio of 1:1, took 10 μL of which for LC-MS/MS detection, and calculated the average was calculated.

Another data set has as its system human tumor cells MCF-7. The data set is described as follows: Cell proliferation assay (CellTiter Glo), MCF-7. Type of data set: cell-based. The following applies: MCF7, MCF-7 cells incubated for 120 h, read-out: IC50(μM) of compound on MCF cell. The protocol:
(§1) Method: The anti-proliferative effects on human tumor cells MCF-7 and HGC27 of certain compounds of the present invention were evaluated by CellTiter Glo assay.
(§2) Detection method: MCF-7 cells were suspended in DMEM culture medium, the cell concentration of which was adjusted to 25000 cells/mL; HGC27 cells were suspended in RPMI-1640 culture medium, the cell concentration of which was adjusted to 5000 cells/mL. 100 μL of cell suspension was dispensed to a 96-well assay plate and placed in a CO2 incubator overnight. The tested compounds were dissolved in DMSO, and 3-fold derail dilution was performed to obtain 10-point concentrations. the 10-point concentrations of the tested compounds or or negative control was transferred to the well containing 100 μL of culture medium respectively, incubated at 37° C., 5% CO2, the HGC27 cells were incubated for 96 h, MCF-7 cells were incubated for 120 h. Then 100 μL of CellTiter-Glo agent was added to the above-mentioned 96-well assay plate, incubated at room temperature for 10 minutes to allow stable luminescence signal. VICTOR™ X5 instrument was used to record RLU (relative luminescence unit), and then calculate the IC50 values were calculated.
(§3) Compound inhibition rate(% inh)=100% −(tested compound RLU-blank control RLU)/(negative control RLU-blank control RLU)*100%
(§4) Blank control: blank culture medium, with no compound or cell;
(§5) The IC50 (half inhibitory concentration) of the compound was obtained using the following nonlinear fitting formula:
(§6) Y=minimum inhibition rate+(max inhibition rate-minimum inhibition rate)/(1+10^((Log IC50−X)*slope)); wherein, X: the log value of the concentration of the tested compound; Y: the inhibition rate of the tested compound(% inh).

A further data set deals with PI3Kα (Homo sapiens, UniProt P42336). In words: Kinase experiment (ADP-Glo, luminescence), PI3Kα. The class given is biochemical. Particulars: final concentration of ATP 10 μM; read-out: IC50 of compound to PI3K (nM) α. The procedure: (§7) PI3Kα, PI3Kβ, PI3Kγ kinases undergo enzymatic reactions with their substrates ATP and PIP2:3PS, the amount of the product detected by ADP-Glo agent and luminescence method were used to reflect the enzymatic activities of PI3Kα, PI3Kβ, PI3Kγ (the final concentration of ATP is 10 μM). The above methods were used to test the inhibitory activity of certain compound of the present invention on PI3Kα, PI3Kβ and PI3Kγ kinase.
(§8) Agent: Basic kinase buffer (pH 7.5); PI3Kα, PI3Kβ, PI3Kγ kinase solutions; PIP2:3PS and ATP solutions; ADP-Glo kit (containing 10 mM MgCl2).
(§9) Wherein, the buffer composition: 50 mM Hepes (pH 7.2-7.5), 3 mM MgCl2, 1 mM EGTA, 0.03% CHAPS, 100 mM NaCl, 2 mM DTT; • Compound preparation: The tested compound was diluted to a specific concentration with 100% DMSO. • Process: 1) PI3Kα, PI3Kβ, or PI3Kγ protein solution were dispensed to a 384-well assay plate (6008280, PerkinElmer), and centrifuged at 1000 rpm for 1 minute. • 2) Tested compound, negative control DMSO or positive control BYL719 was dispensed to the above-mentioned 384-well assay plate with the kinase, centrifuged at 1000 rpm for 1 min, and incubated at 25° C. for 15 mins. • 3) PIP2:3PS&ATP solution was added to the above-mentioned 384-well assay plate, centrifuged at 1000 rpm for 1 min, incubated at 25° C. for 60 mins. • 4) 5 μL of ADP-Glo agent (10 mM MgCl2 contained) was transferred to the 384-well assay plate, centrifuged at 1000 rpm for 1 min, incubated at 25° C. for 40 mins. • 5) 10 μL of Detection agent was transferred to the 384-well assay plate, centrifuged at 1000 rpm for 1 min, incubated at 25° C. for 40 mins. • 6) RLU (Relative luminescence unit) value was measured by Envision multifunctional plate reader. The RLU value was used to characterize the degree of reaction between the enzyme and the substrate, and calculate the IC50 value. • 7) Data analysis:
(§10) Compound inhibition rate(% inh)=(negative control RLU-tested compound RLU)/(negative control RLU-positive control RLU)*100%
as §5
(§11) Y=minimum inhibition rate+(max inhibition rate-minimum inhibition rate)/(1+10^((Log IC50−X)*slope)); wherein, X is the log value of the concentration of the tested compound, Y is the inhibition rate of tested compound(% inh).
On the technique in general: In ADP-Glo the light output rises with the ADP produced.

Another data set addresses PI3Kγ (Homo sapiens, UniProt P48736). The data set is described as follows: Kinase experiment (ADP-Glo, luminescence), PI3Kγ. The class given is biochemical. Particulars: final concentration of ATP 10 μM; read-out: IC50 of compound to PI3K (nM) γ. The protocol:
as §7, §8, §9, §10, §5, §11

The next data set concerns the target PI3Kβ (Homo sapiens, UniProt P42338). The data set is described as follows: Kinase experiment (ADP-Glo, luminescence), PI3Kβ. The class given is biochemical. Particulars: final concentration of ATP 10 μM; read-out: IC50 of compound to PI3K (nM) β. The protocol: as §7, §8, §9, §10, §5, §11
The next data set deals with human tumor cells HGC27. The data set is described as follows: Cell proliferation assay (CellTiter Glo), HGC27. Type of data set: cell-based. Particulars: HGC-27, HGC27 cells incubated for 96 h, read-out: IC50(μM) of ompound on HGC-27cell. The protocol:
as §1, §2, §3, §4, §5, §6
(ATP-based viability assays read luminescence as a measure of living cells.)

Chain of PI3Kβ (P42338 whole entry): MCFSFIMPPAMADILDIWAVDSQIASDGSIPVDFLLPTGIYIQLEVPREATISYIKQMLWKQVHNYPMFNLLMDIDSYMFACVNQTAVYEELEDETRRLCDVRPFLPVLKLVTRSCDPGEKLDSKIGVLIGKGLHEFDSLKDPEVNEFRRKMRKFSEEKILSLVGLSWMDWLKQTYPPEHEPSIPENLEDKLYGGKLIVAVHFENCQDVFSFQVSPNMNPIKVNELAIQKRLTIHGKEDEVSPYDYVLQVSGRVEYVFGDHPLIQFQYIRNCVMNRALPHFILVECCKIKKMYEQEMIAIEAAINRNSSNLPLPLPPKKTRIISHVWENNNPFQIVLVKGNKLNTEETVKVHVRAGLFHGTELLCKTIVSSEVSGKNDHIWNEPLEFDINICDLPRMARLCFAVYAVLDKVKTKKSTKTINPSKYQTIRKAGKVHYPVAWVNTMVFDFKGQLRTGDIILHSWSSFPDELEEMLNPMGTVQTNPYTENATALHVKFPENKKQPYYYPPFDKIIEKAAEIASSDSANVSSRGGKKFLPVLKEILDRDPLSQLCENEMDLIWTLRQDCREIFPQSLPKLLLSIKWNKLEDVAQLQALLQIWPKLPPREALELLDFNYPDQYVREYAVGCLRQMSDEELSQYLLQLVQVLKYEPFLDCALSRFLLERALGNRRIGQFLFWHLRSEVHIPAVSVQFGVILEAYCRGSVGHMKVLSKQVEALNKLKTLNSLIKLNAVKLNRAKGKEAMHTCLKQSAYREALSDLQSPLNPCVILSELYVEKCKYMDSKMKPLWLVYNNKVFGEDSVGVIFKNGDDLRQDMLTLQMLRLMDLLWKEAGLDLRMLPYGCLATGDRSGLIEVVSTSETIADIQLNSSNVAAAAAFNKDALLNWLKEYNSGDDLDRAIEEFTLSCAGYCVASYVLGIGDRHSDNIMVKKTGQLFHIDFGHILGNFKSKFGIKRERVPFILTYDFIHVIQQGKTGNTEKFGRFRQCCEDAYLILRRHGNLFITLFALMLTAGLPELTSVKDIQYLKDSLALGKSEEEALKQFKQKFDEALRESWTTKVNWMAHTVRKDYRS
Chain of PI3Kβ (P27986 whole entry partner): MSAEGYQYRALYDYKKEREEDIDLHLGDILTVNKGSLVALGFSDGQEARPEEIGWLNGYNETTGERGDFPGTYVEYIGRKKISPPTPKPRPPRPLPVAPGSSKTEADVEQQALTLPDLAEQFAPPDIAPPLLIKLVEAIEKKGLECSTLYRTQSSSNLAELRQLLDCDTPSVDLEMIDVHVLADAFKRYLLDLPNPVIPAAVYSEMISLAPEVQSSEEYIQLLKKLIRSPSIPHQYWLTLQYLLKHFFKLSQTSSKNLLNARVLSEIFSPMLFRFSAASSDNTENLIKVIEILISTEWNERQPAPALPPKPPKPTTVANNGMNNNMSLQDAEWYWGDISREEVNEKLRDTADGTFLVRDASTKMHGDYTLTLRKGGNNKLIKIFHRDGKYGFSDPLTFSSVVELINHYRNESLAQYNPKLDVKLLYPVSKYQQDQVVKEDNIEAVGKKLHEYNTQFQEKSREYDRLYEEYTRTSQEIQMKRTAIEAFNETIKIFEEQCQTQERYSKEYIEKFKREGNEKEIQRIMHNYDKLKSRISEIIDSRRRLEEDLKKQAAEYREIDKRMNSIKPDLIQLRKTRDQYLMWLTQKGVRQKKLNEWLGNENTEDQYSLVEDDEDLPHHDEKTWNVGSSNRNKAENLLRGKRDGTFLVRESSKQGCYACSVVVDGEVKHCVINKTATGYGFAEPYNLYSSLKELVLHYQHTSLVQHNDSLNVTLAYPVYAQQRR
Chain of PI3Kα (P42336 whole entry): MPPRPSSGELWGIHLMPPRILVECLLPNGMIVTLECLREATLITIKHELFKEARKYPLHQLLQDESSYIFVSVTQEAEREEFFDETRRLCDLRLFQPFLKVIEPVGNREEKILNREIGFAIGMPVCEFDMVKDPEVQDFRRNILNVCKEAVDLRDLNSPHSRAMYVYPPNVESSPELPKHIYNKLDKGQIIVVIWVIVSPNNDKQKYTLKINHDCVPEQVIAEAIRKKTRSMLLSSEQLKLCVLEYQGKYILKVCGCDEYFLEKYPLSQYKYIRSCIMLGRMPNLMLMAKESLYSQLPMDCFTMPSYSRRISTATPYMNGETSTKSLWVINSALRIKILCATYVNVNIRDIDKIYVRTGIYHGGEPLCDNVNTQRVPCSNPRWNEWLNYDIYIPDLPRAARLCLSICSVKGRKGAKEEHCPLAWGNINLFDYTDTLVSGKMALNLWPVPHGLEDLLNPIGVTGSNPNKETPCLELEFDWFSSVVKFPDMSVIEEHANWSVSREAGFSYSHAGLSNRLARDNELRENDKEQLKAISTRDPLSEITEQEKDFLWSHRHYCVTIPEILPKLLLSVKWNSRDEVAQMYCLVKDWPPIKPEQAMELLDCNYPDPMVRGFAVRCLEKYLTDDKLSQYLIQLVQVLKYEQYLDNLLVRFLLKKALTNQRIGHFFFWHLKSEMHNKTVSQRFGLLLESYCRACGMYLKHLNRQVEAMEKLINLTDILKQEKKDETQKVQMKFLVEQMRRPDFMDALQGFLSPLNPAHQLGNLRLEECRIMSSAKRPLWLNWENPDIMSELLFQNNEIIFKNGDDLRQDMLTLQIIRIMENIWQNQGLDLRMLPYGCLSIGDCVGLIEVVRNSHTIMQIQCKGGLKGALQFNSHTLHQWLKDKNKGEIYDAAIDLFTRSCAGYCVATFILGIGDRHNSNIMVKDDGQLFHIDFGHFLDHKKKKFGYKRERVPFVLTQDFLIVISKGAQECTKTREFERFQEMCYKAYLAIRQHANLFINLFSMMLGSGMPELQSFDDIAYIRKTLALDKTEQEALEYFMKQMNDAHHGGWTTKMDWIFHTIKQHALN
Chain of PI3Kα (P27986 whole entry partner): as the sequence (P27986 whole entry partner) above
Chain of PI3Kγ (P48736 whole entry): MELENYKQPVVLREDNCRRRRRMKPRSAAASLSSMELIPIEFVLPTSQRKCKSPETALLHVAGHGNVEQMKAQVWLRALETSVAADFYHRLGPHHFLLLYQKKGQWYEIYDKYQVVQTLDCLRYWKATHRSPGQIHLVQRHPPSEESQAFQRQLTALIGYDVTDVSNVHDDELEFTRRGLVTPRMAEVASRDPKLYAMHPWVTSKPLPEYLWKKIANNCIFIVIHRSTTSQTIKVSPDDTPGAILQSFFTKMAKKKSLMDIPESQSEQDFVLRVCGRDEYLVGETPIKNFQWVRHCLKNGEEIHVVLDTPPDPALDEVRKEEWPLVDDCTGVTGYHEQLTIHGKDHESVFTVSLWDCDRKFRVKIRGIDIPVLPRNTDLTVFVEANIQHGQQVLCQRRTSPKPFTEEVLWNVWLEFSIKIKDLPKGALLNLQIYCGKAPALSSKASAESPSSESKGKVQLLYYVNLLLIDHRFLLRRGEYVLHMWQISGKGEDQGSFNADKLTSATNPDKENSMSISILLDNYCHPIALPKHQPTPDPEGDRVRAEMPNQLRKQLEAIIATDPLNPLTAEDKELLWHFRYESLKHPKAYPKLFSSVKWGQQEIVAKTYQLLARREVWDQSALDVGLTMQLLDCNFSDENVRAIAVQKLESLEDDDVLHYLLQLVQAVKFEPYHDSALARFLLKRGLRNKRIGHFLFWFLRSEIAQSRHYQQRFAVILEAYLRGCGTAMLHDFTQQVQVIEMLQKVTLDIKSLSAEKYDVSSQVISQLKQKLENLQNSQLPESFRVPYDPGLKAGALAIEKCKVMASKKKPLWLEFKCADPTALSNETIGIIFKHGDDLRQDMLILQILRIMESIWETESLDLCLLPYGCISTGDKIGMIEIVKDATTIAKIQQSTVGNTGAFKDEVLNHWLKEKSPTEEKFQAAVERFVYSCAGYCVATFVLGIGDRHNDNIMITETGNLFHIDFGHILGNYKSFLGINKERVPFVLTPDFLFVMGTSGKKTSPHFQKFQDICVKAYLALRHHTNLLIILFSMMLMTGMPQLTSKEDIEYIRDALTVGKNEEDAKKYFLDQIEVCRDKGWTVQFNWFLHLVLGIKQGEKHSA

As a reminder, the clearance is the rate of elimination divided by the concentration. Broadly, the AUC is the area under the concentration-time curve, a measure of exposure. Read a high AUC as more exposure. The term Cmax denotes the maximum level reached in the sampled fluid or tissue. What is called IC50 is the concentration needed to halve the response being measured. In data set [1], `CC(C)C1C(=O)N(C2CC2)C(=O)N1c1cn2c(n1)-c1ccc(N3CCC[C@H]3C(N)=O)cc1OCC2` (stereo partly drawn) [Example 2, (2S)-1-(2-(3-cyclopropyl-5-isopropyl-2,4-dioxoimidazolidin-1-yl)-5,6-dihydrobenzo[f]imidazo[1,2-d][1,4]oxazepin-9-yl)pyrrolidine-2-carboxamide] showed a clearance of 1.98 mL/min/kg. The AUC in data set [1] was 53000 ng·h/mL. For the same compound, the highest level in data set [1] (Cmax) was 4340 ng/mL. Further, the IC50 is 0.07 µM in the data set on human tumor cells MCF-7; below 5 nM on PI3Kα; 300 to 600 nM on PI3Kγ; above 600 nM at PI3Kβ; 0.361 µM in the data set on human tumor cells HGC27.

In data set [1], `CC(C)[C@@H]1C(=O)N(C2CC2)C(=O)N1c1cn2c(n1)-c1ccc(N3CCC[C@H]3C(N)=O)cc1OCC2` [Example 32, (2S)-1-(2-((5R)-3-cyclopropyl-5-isopropyl-2,4-dioxoimidazolidin-1-yl)-5,6-dihydrobenzo[f]imidazo[1,2-d] [1,4]oxazepin-9-yl)pyrrolidine-2-carboxamide] came in with a clearance of 1.5 mL/min/kg. Besides, in data set [1], the AUC was found to be 66400 ng·h/mL. Moreover, the Cmax in data set [1] turned out to be 5030 ng/mL. Further, the IC50 in the data set on human tumor cells MCF-7 was 0.107 µM; on PI3Kα, below 5 nM; on PI3Kγ, 300 to 600 nM; on PI3Kβ, 300 to 600 nM; in the data set with human tumor cells HGC27, 0.415 µM.

These data come from patent US20230053342A1, “IMIDAZOLIDINONE COMPOUND, PREPARATION METHOD THEREFOR AND USE THEREOF” (BETTA PHARMACEUTICALS CO., LTD, priority 2019, published 2023).
